Data from the METLIN SMRT retention time set (Domingo-Almenara et al. 2019).

Test: gradient 5% acetonitrile 3 min, to 50% in 2 min, to 85% in 15 min, held 3 min, 100 µL/min
Details: column: Zorbax Extend-C18 2.1 x 50 mm; eluents: water / acetonitrile, 0.1% formic acid
In short: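 Values are retention times taken from adduct peaks that software picked and an analyst inspected. The pure standards were run as mixtures of ~100 molecules on HPLC linked to a quadrupole time-of-flight mass spectrometer, in positive and negative ionization mode. A Zorbax Extend-C18 column (2.1 × 50 mm, 1.8 μm) was used at 100 μL/min with water and acetonitrile, each including 0.1% formic acid.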

| Compound | RP-LC retention time [s] |
| --- | --- |
| C=CCN(CC=C)C(=O)Cn1c(C)c(Cc2ccccc2)c(=O)n2nc(-c3ccccc3)nc12 | 1040 |
| CCc1ccc(NC(=O)C(C)Oc2cc(C(F)(F)F)c3c(C)nn(C)c3n2)cc1 (configuration not stated) | 1030 |
| CC(=O)NC(CCS(C)(=O)=O)C(=O)Nc1ccc(-c2nc3ccc(C)cc3s2)cc1 (configuration not stated) | 741 |
| O=C(NCc1cccs1)C1CN(C(=O)c2ccc(F)c(F)c2)C1 | 688 |
| CC1(C(=O)NCc2ccc(Cl)cc2)CCCCC(=O)N1 (configuration not stated) | 704 |
| Cc1oc(-c2cccc(Cl)c2)nc1Cn1nnc(-c2nc(-c3ccccc3)no2)c1C | 1320 |
| O=C(c1cccc(Br)c1)N1CCN(Cc2noc3ccccc23)CC1 | 756 |
| Cc1ccc(NC(=O)C2CCN(S(=O)(=O)c3ccc4c(c3)sc(=O)n4C)CC2)cc1C | 913 |
| CCc1ccc(OCCS(=O)(=O)Nc2cc(NC(C)=O)ccc2OC)cc1 | 808 |
| CCn1c(=O)c2c(cc(C)n2C)n(CC(=O)Nc2ccc(C)cc2C)c1=O | 812 |
| Cc1ccccc1CNC(=O)C1CCN(CCc2cn(C)c3ncccc23)CC1 | 608 |
| CCn1cnc(S(=O)(=O)N2CCC(C(=O)NCCc3ccc(OC)c(OC)c3)CC2)c1 | 661 |
| COc1ccccc1C(=O)NC1(C(F)(F)F)C(=O)N(CC2CCCO2)C2=C1C(=O)CC(C)(C)C2 (configuration not stated) | 986 |
| Cc1ccc(-c2nc3ccccn3c2Nc2ccc3c(c2)OCO3)cc1 | 694 |
| O=C(NCc1ccccn1)C1c2ccccc2C(=O)N(C2CCCC2)C1c1cccs1 (configuration not stated) | 709 |
| Cc1cccc2nnc(N3CCCC(C(=O)Nc4ccccc4)C3)n12 (configuration not stated) | 680 |
| Cc1ccsc1CN1CCN(c2cnn3cnnc3c2)CC1 | 547 |
| CCc1cc(=O)n(CC(=O)Nc2ccc(C(C)C)cc2)c(N2CCOCC2)n1 | 895 |
| c1ccc(-c2nnc3nc(N4CCCCC4)nc(N4CCCCC4)n23)cc1 | 1260 |
| COCCCNC(=O)C1CN(C(=O)c2ccccc2)CC12CCCCC2 (configuration not stated) | 571 |
| Cc1ccc(NS(=O)(=O)c2ccc(-c3nnc(C4CCC4)o3)o2)cc1 | 926 |
| O=C(CCc1ccc2cc[nH]c2c1)N1CCN(c2ccc(Cl)cc2)CC1 | 996 |
| Cc1ccc(Cc2nc(-c3ccc(-n4ccnc4)nc3)no2)cc1 | 759 |

| Compound | RP-LC retention time [s] |
| --- | --- |
| CCN1C(=O)C(C)(C(=O)Nc2ccc(F)cc2F)Oc2cccnc21 (configuration not stated) | 875 |
| COc1c(C(=O)NCCN2CCCCC2C)sc2ccc(Cl)cc12 (configuration not stated) | 716 |
| COc1cccc(S(=O)(=O)N2CC(n3ccnc3)C2)c1 | 601 |
| COCc1nncn1C1CCN(S(=O)(=O)c2cccc(F)c2)CC1 | 693 |
| Cc1cccc(N2CCN([C@H]3CS(=O)(=O)C[C@@H]3S(=O)(=O)c3ccc(F)cc3)CC2)c1 | 941 |
| CCc1ccccc1NC(=O)Cn1nc2nc(N3CCCC(C)C3)ccn2c1=O (configuration not stated) | 838 |
| O=C(Nc1ccc(Cl)cc1)N1CCCC(c2nnc(Cc3ccc(F)cc3)o2)C1 (configuration not stated) | 877 |
| O=S(=O)(CCc1noc(-c2nccc3ccccc23)n1)c1ccccc1 | 890 |
| O=S(=O)(c1ccc(Br)cc1)N1CCc2nc(-c3ccc(F)cc3)ncc2C1 | 1170 |
| COc1ccc(NC(=O)CSc2ccc(N3CCCC(C(=O)NC4CC4)C3)nn2)cc1Cl (configuration not stated) | 624 |
| O=C(CSc1ncc(CO)n1CC(=O)NC1CC1)Nc1ccc(F)cc1F | 565 |
| CCN1c2cc(C(=O)NCCC3=CCCCC3)ccc2C(=O)N2CCCCC21 (configuration not stated) | 959 |
| CCN1C(=O)CCc2cc(NS(=O)(=O)c3cccc(C)c3)ccc21 | 788 |
| COc1ccc(N2CCN(CCNC(=O)c3ccc(Br)o3)CC2)cc1 | 583 |
| CC(C)CCN1CCC(N2CCN(S(=O)(=O)c3ccc(C(F)(F)F)cc3)CC2)C1=O (configuration not stated) | 794 |
| COc1ccc(CC(=O)N2CCCC2c2c(C)noc2C)cc1 (configuration not stated) | 727 |
| CCn1ccc(NC(=O)Nc2cc(C)ccc2C)n1 | 869 |
| CCn1c(CCC(=O)NCc2ccc(C)cc2)nc2ccccc2c1=O | 796 |
| COc1ccc(C)cc1NC(=O)N1CCCC(C)(C(=O)NCc2ccc(C)cc2)C1 (configuration not stated) | 968 |
| O=C(Nc1ccc(C(F)(F)F)cc1)N1CCCC(Cn2c(C3CC3)nc3cccnc32)C1 (configuration not stated) | 798 |
| CCc1ccc(-c2nc(-c3ccc(-n4cccn4)nc3)no2)cc1 | 1470 |
| Cc1ccc(S(=O)(=O)N2CC(c3noc(C)n3)C3(CCOCC3)C2)c(C)c1 (configuration not stated) | 888 |
| Cc1ccc(NC(=O)Cn2c(C(C)C)nc3c(c2=O)CCN(Cc2ccccc2)C3)cc1 | 714 |

| Compound | RP-LC retention time [s] |
| --- | --- |
| O=C(Cc1cccc(F)c1)NC1(c2nc(-c3ccsc3)no2)CCCCC1 | 589 |
| COc1ccc(-c2ncc3c(n2)CCN(S(=O)(=O)c2ccc(F)c(C)c2)C3)cc1 | 1100 |
| COCCCNC(=O)c1csc(-c2cnccn2)n1 | 625 |
| CCOC(=O)C1=C(CN2CCN(CC)CC2)NC(=O)NC1c1ccc(OC)cc1 (configuration not stated) | 599 |
| O=C(NCc1ccsc1)C(=O)NCc1ccccc1Cl | 842 |
| CC(=O)N1CCCc2ccc(NC(=O)Cc3ccc(Cl)cc3)cc21 | 816 |
| O=C(NCc1ccc(F)cc1)N1CCC(c2noc(-c3ccccn3)n2)C1 (configuration not stated) | 813 |
| O=C(Cn1c(=O)cc(-c2nc(C3CC3)no2)c2ccccc21)Nc1ccc(F)cc1 | 616 |
| COc1ccc(CNC(=O)c2cccc(N3CCNC(c4ccccc4)C3)n2)cc1 (configuration not stated) | 634 |
| COc1ccc(NC(=O)Cn2ccnc2-c2ccnc(N3CCOCC3)c2)cc1Cl | 631 |
| CN(Cc1ccccc1)c1ccc(-c2noc(CN3CCN(c4ccccc4)CC3)n2)cn1 | 1100 |
| Cc1ccc(NC(=O)C2CC(=O)N(c3ccc4oc(C)nc4c3)C2)c(C)c1 (configuration not stated) | 741 |
| COCCN1C(=O)CCc2cc(NC(=O)CCc3ccccc3)ccc21 | 761 |
| CCCC(C)NC(=O)c1ccc2c(c1)CCCN2S(C)(=O)=O (configuration not stated) | 827 |
| Cc1ccccc1Nc1c(-c2cccc(O)c2)nc2ccc(Br)cn12 | 727 |
| COc1ccc(-c2ncc3c(n2)CCN(C(=O)c2ccccc2Br)C3)cc1 | 948 |
| O=C(CSc1ccc(N2CCN(c3ccc(F)cc3)CC2)nn1)NCC1CCCO1 (configuration not stated) | 689 |
| CC(=O)Nc1cccc(N2CC(C(=O)Nc3cccc(C(F)(F)F)c3)CC2=O)c1 (configuration not stated) | 775 |
| Cn1c(=O)n(C)c2cc(CNc3ccc(N4CCOCC4)cc3)ccc21 | 600 |
| CC(C)n1c(=O)sc2cc(S(=O)(=O)N3CCC(C(=O)NC4CCCCCCC4)CC3)ccc21 | 1040 |
| Cc1c(Cl)cccc1Nc1c(-c2ccccc2)nc2cnccn12 | 997 |
